From US11725010B2, “Polyheterocyclic compounds as METTL3 inhibitors” (Storm Therapeutics Limited, priority 2019, dated 2023)
Read-outs that look alike come from different tables or passages of the source.

Key:
METTL3/14 = METTL3/14 (Homo sapiens (Human), UniProt Q86U44)
Caov-3 cells = assay: Caov3 CTG proliferation assay; assay type: cell-based; conditions: Homo sapiens
Method: CTG Assay (Caov3 Cell Line)
Upon treatment, Coav-3 cells were incubated for 10 min at RT with the CellTiter-Glo reagent (G7571, Promega). Measurement of the luminescence signal was performed on a microplate reader (Ensight, PerkinElmer).
Caov3 CTG Assay—Proliferation Assay

KASUMI-1 cells = assay: Kasumi cell assay (CellTiter-Glo cell growth); assay type: cell-based; conditions: Homo sapiens
Method: Upon treatment, Kasumil cells were incubated for 10 min at RT with the CellTiter-Glo reagent (G7571, Promega). Measurement of the luminescence signal was performed on a microplate reader (Ensight, PerkinElmer).

[1] = Caov-3, treated for 120 hours, CellTiter-Glo luminescence, read-out: Caov3 cells IC50
[2] = Kasumi 1, treated for 120 hours, CellTiter-Glo luminescence, read-out: KASUMI1 cells IC50

Sequence of METTL3/14 (Q86U44 whole entry): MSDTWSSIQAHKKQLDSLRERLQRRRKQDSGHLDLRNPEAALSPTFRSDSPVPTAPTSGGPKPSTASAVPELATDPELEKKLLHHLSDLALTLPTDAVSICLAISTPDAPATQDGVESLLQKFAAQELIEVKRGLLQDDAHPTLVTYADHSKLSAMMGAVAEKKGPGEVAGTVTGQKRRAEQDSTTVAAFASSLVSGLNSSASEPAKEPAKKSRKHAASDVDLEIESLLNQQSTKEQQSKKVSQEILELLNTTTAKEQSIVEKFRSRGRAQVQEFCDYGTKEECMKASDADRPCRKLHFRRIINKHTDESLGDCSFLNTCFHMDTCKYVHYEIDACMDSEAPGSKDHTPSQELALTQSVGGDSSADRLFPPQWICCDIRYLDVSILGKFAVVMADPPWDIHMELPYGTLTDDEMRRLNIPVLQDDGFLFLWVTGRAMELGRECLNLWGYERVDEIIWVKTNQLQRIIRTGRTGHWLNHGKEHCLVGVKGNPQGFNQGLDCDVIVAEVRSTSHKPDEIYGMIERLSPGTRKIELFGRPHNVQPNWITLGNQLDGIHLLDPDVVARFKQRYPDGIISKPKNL
Sequence of METTL3/14 (Q9HCE5 whole entry partner): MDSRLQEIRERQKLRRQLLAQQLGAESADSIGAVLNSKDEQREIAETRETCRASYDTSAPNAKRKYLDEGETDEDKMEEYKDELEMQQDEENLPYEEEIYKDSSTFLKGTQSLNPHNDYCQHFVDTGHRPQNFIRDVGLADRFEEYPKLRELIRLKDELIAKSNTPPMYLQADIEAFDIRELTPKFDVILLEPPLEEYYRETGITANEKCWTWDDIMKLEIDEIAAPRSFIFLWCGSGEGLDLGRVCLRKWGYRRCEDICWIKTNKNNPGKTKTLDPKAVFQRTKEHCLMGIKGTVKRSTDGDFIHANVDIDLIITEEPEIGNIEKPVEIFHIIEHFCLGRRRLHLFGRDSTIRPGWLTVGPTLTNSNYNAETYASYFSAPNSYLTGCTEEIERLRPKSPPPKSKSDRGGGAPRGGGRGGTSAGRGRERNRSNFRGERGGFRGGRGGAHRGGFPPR

Structure (SMILES): O=C(NCc1ccc2cc(CNCC3CC34CC4)[nH]c2c1)c1cc(=O)n2ccccc2n1 (stereo not drawn) [Compound 109, 4-oxo-N-[(2-{[({spiro[2.2]pentan-1-yl}methyl)amino]methyl}-1H-indol-6-yl)methyl]-4H-pyrido[1,2-a]pyrimidine-2-carboxamide]
- IC50 (METTL3/14): 6.1 nM
- IC50 (Caov-3 cells; [1]): 608 nM
- IC50 (KASUMI-1 cells; [2]): 1470 nM

Structure (SMILES): O=C(NCc1ccc2cc(CNCC3CCC3)[nH]c2c1)c1cc(=O)n2ccccc2n1 [Example 2, N-[(2-{[(cyclobutylmethyl)amino]methyl}-1H-indol-6-yl)methyl]-4-oxo-4H-pyrido[1,2-a]pyrimidine-2-carboxamide]
- IC50 (METTL3/14): 6.1 nM
- IC50 (Caov-3 cells; [1]): 237 nM
- IC50 (KASUMI-1 cells; [2]): 587 nM

Structure (SMILES): CC12CC(CNCc3cc4ccc(CNC(=O)c5cc(=O)n6ccccc6n5)cc4[nH]3)(C1)C2 [Compound 77, N-[(2-{[({3-methylbicyclo[1.1.1]pentan-1-yl}methyl)amino]methyl}-1H-indol-6-yl)methyl]-4-oxo-4H-pyrido[1,2-a]pyrimidine-2-carboxamide]
- IC50 (METTL3/14): 6.1 nM
- IC50 (Caov-3 cells; [1]): 701 nM
- IC50 (KASUMI-1 cells; [2]): 1760 nM

Structure (SMILES): CCC1(CC)CN(Cc2cc3ccc(CNC(=O)c4cc(=O)n5ccccc5n4)cc3[nH]2)C1 [Compound 102, N-({2-[(3,3-diethylazetidin-1-yl)methyl]-1H-indol-6-yl}methyl)-4-oxo-4H-pyrido[1,2-a]pyrimidine-2-carboxamide]
- IC50 (METTL3/14): 6.1 nM
- IC50 (Caov-3 cells; [1]): 230 nM
- IC50 (KASUMI-1 cells; [2]): 525 nM

Structure (SMILES): O=C(NCc1ccc2cc(CN3CC4(CCCCC4)C3)[nH]c2c1)c1cc(=O)n2ccccc2n1 [Compound 90, N-{[2-({2-azaspiro[3.5]nonan-2-yl}methyl)-1H-indol-6-yl]methyl}-4-oxo-4H-pyrido[1,2-a]pyrimidine-2-carboxamide]
- IC50 (METTL3/14): 6.1 nM
- IC50 (Caov-3 cells; [1]): 602 nM
- IC50 (KASUMI-1 cells; [2]): 1250 nM

Structure (SMILES): O=C(NCc1ccc2cc(CN3CC4(CCCC4)C3)[nH]c2c1)c1cc(=O)n2ccccc2n1 [Compound 81, N-{[2-({2-azaspiro[3.4]octan-2-yl}methyl)-1H-indol-6-yl]methyl}-4-oxo-4H-pyrido[1,2-a]pyrimidine-2-carboxamide]
- IC50 (METTL3/14): 6.1 nM
- IC50 (Caov-3 cells; [1]): 564 nM
- IC50 (KASUMI-1 cells; [2]): 1030 nM

Structure (SMILES): O=C(NCc1ccc2cc(CN3CC4CCCC4C3)[nH]c2c1)c1cc(=O)n2ccccc2n1 (stereo not drawn) [Compound 106, N-{[2-({octahydrocyclopenta[c]pyrrol-2-yl}methyl)-1H-indol-6-yl]methyl}-4-oxo-4H-pyrido[1,2-a]pyrimidine-2-carboxamide]
- IC50 (METTL3/14): 6.1 nM
- IC50 (Caov-3 cells; [1]): 911 nM
- IC50 (KASUMI-1 cells; [2]): 1830 nM

Structure (SMILES): [2H]C([2H])(NCC1CCC1)c1cc2ccc(CNC(=O)c3cc(=O)n4ccccc4n3)cc2[nH]1 [Example 47, N-[[2-[(Cyclobutylmethylamino)-dideuterio-methyl]-1H-indol-6-yl]methyl]-4-oxo-pyrido[1,2-a]pyrimidine-2-carboxamide]
- IC50 (METTL3/14): 6.1 nM
- IC50 (Caov-3 cells; [1]): 186 nM
- IC50 (KASUMI-1 cells; [2]): 344 nM

Structure (SMILES): O=C(NCc1ccc2cc(CN3CCC4(CCC4)C3)[nH]c2c1)c1cc(=O)n2ccccc2n1 [Compound 104, N-{[2-({6-azaspiro[3.4]octan-6-yl}methyl)-1H-indol-6-yl]methyl}-4-oxo-4H-pyrido[1,2-a]pyrimidine-2-carboxamide]
- IC50 (METTL3/14): 6.1 nM
- IC50 (Caov-3 cells; [1]): 237 nM
- IC50 (KASUMI-1 cells; [2]): 661 nM

Structure (SMILES): O=C(NCc1ccc2cc(CN3CC(C4CCC4)C3)[nH]c2c1)c1cc(=O)n2ccccc2n1 [Compound 95, N-({2-[(3-cyclobutylazetidin-1-yl)methyl]-1H-indol-6-yl}methyl)-4-oxo-4H-pyrido[1,2-a]pyrimidine-2-carboxamide]
- IC50 (METTL3/14): 6.1 nM
- IC50 (Caov-3 cells; [1]): 960 nM
- IC50 (KASUMI-1 cells; [2]): 3190 nM

Structure (SMILES): O=C(NCc1cc2[nH]c(CNCC34CC(C3)C4)cc2cn1)c1cc(=O)n2ccccc2n1 [Compound 131, N-[(2-{[({bicyclo[1.1.1]pentan-1-yl}methyl)amino]methyl}-1H-pyrrolo[3,2-c]pyridin-6-yl)methyl]-4-oxo-4H-pyrido[1,2-a]pyrimidine-2-carboxamide]
- IC50 (METTL3/14): 6.1 nM
- IC50 (Caov-3 cells; [1]): 237 nM
- IC50 (KASUMI-1 cells; [2]): 1140 nM

Structure (SMILES): O=C(NCc1ccc2cc(CN[C@H]3CCC[C@H]3O)[nH]c2c1)c1cc(=O)n2ccccc2n1 [Compound 38, N-{[2-({[(1S,2R)-2-hydroxycyclopentyl]amino}methyl)-1H-indol-6-yl]methyl}-4-oxo-4H-pyrido[1,2-a]pyrimidine-2-carboxamide]
- IC50 (METTL3/14): 6.1 nM
- IC50 (Caov-3 cells; Caov-3, 120 h, read-out: Caov3 cells IC50 nM): 458 nM
- IC50 (KASUMI-1 cells; Kasumi 1, 120 h, read-out: KASUMI1 cells IC50 nM): 2310 nM

Structure (SMILES): O=C(NCc1cc2[nH]c(CNCC34CC(F)(C3)C4)cc2cn1)c1cc(=O)n2ccccc2n1 [Compound 132, N-[(2-{[({3-fluorobicyclo[1.1.1]pentan-1-yl}methyl)amino]methyl}-1H-pyrrolo[3,2-c]pyridin-6-yl)methyl]-4-oxo-4H-pyrido[1,2-a]pyrimidine-2-carboxamide]
- IC50 (METTL3/14): 6.1 nM
- IC50 (Caov-3 cells; [1]): 268 nM
- IC50 (KASUMI-1 cells; [2]): 785 nM

Structure (SMILES): O=C(NCc1ccc2cc(CN3CC4(CC(F)C4)C3)[nH]c2c1)c1cc(=O)n2ccccc2n1 [Compound 93, N-{[2-({6-fluoro-2-azaspiro[3.3]heptanean-2-yl}methyl)-1H-indol-6-yl]methyl}-4-oxo-4H-pyrido[1,2-a]pyrimidine-2-carboxamide]
- IC50 (METTL3/14): 6.1 nM
- IC50 (Caov-3 cells; [1]): 453 nM
- IC50 (KASUMI-1 cells; [2]): 1330 nM

Structure (SMILES): CC1(C)CCN(Cc2cc3ccc(CNC(=O)c4cc(=O)n5ccccc5n4)cc3[nH]2)C1 [Compound 92, N-({2-[(3,3-dimethylpyrrolidin-1-yl)methyl]-1H-indol-6-yl}methyl)-4-oxo-4H-pyrido[1,2-a]pyrimidine-2-carboxamide]
- IC50 (METTL3/14): 6.1 nM
- IC50 (Caov-3 cells; [1]): 598 nM
- IC50 (KASUMI-1 cells; [2]): 1610 nM

Structure (SMILES): O=C(NCc1ccc2cc(CN3CCC4(CCCC4)C3)[nH]c2c1)c1cc(=O)n2ccccc2n1 [Compound 113, N-{[2-({2-azaspiro[4.4]nonan-2-yl}methyl)-1H-indol-6-yl]methyl}-4-oxo-4H-pyrido[1,2-a]pyrimidine-2-carboxamide]
- IC50 (METTL3/14): 6.1 nM
- IC50 (Caov-3 cells; [1]): 575 nM
- IC50 (KASUMI-1 cells; [2]): 1650 nM

Structure (SMILES): c1cc(-c2cn(Cc3ccc4cc(CN5CC6(CCC6)C5)[nH]c4c3)nn2)c2cn[nH]c2c1 [Compound 122, 4-(1-{[2-({2-azaspiro[3.3]heptanean-2-yl}methyl)-1H-indol-6-yl]methyl}-1H-1,2,3-triazol-4-yl)-1H-indazole]
- IC50 (METTL3/14): 6.1 nM
- IC50 (Caov-3 cells; [1]): 525 nM
- IC50 (KASUMI-1 cells; [2]): 1100 nM

Structure (SMILES): O=C(NCc1ccc2cc(CNCC34CCC(C3)C4)[nH]c2c1)c1cc(=O)n2ccccc2n1 [Compound 76, N-[(2-{[({bicyclo[2.1.1]hexan-1-yl}methyl)amino]methyl}-1H-indol-6-yl)methyl]-4-oxo-4H-pyrido[1,2-a]pyrimidine-2-carboxamide]
- IC50 (METTL3/14): 6.1 nM
- IC50 (Caov-3 cells; [1]): 242 nM
- IC50 (KASUMI-1 cells; [2]): 698 nM

Structure (SMILES): CC12CC(CNCc3cc4cnc(CNC(=O)c5cc(=O)n6ccccc6n5)cc4[nH]3)(C1)C2 [Compound 129, N-[(2-{[({3-methylbicyclo[1.1.1]pentan-1-yl}methyl)amino]methyl}-1H-pyrrolo[3,2-c]pyridin-6-yl)methyl]-4-oxo-4H-pyrido[1,2-a]pyrimidine-2-carboxamide]
- IC50 (METTL3/14): 6.1 nM
- IC50 (Caov-3 cells; [1]): 699 nM
- IC50 (KASUMI-1 cells; [2]): 2900 nM

Structure (SMILES): O=C(NCc1ccc2cc(CNCC34CC(F)(C3)C4)[nH]c2c1)c1cc(=O)n2ccsc2n1 [Example 125, N-[(2-{[({3-fluorobicyclo[1.1.1]pentan-1-yl}methyl)amino]methyl}-1H-indol-6-yl)methyl]-5-oxo-5H-[1,3]thiazolo[3,2-a]pyrimidine-7-carboxamide]
- IC50 (METTL3/14): 6.1 nM
- IC50 (Caov-3 cells; [1]): 212 nM
- IC50 (KASUMI-1 cells; [2]): 504 nM
